Data published in PubChem BioAssay (NCI).
Several values for one entry are separate records, joined by “and”; a condition that tells them apart may be missing. Identical values can stand only once.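 Cells were grown in 96-well plates and exposed to each compound for 48 hours at five concentrations; endpoints were interpolated linearly between bracketing concentrations, or set to the highest concentration if not reached. GI50 = concentration required for 50% inhibition of growth. At the TGI there is no net growth.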

Experiments:
Assay in all cases: growth of human tumour cells (NCI), 48 h
[1] = tested on: 786-0 renal
[2] = tested on: BT-549 breast
[3] = tested on: K-562 leukemia
[4] = tested on: MOLT-4 leukemia
[5] = tested on: SF-295 CNS
[6] = tested on: SF-539 CNS
[7] = tested on: SK-MEL-2 melanoma
[8] = tested on: SK-MEL-5 melanoma
[9] = tested on: SW-620 colon
[10] = tested on: TK-10 renal

SMILES	GI50 [1]	TGI [1] [µM]	GI50 [2] [µM]	TGI [2] [µM]	GI50 [3]	TGI [3] [µM]	GI50 [4] [µM]	TGI [4] [µM]	GI50 [5]	GI50 [6] [µM]	TGI [6]	GI50 [7]	TGI [7]	GI50 [8]	TGI [8] [µM]	GI50 [9]	TGI [9] [µM]	GI50 [10]	TGI [10] [µM]	TGI [5] [µM]
c1ccc(Nn2c(CCCCCCCCc3nnc(COc4ccccc4)n3Nc3ccccc3)nnc2COc2ccccc2)cc1	29 µM and 36.3 µM	> 300	33	> 300	3.71 µM and 2.17 µM	> 300	14.5	> 300	1.24 µM and 7.51 µM	7.23	> 60.5 µM and 20 µM	13.8 µM and 25.5 µM	> 63.4 µM and 252 µM	6.41 µM and 50 µM	> 300	9.55 µM and 11.8 µM	> 300	45.7 µM and 162 µM	> 300	
CN[C@@H]1C[C@H]2O[C@@](C)([C@@H]1OC)n1c3ccccc3c3c4c(c5c6ccccc6n2c5c31)C(=O)N[C@H]4O		0.203	0.0683	0.617	0.129 µM	> 6.56	0.0337	> 4.75	0.0268 µM	0.0266	0.115 µM	0.0358 µM	0.853 µM	0.102 µM	1.39	0.104 µM	> 5.91	0.0096 µM	0.0541	0.26
COc1cc2c(cc1OC)-c1ccc3cc4c(cc3c1N(CCN(C)C)C2)OCO4	0.442 µM	1.99	1.15	11.9	0.262 µM	1.57	0.158	2.57	0.4 µM	0.352	2.53 µM	3.36 µM	16.7 µM	1.39 µM	3.01	0.522 µM	2.58	2.03 µM	7.39	8.28
CCCOC(=O)N[C@H]1CCc2cc(OC)c(OC)c(OC)c2-c2ccc(SC)c(=O)cc21	< 0.01 µM	> 100	< 0.01	19.6	< 0.01 µM	24.1	< 0.01	24.4	< 0.01 µM	< 0.01	0.173 µM	0.463 µM	90.1 µM	< 0.01 µM	0.018	< 0.01 µM	21.5	3.61 µM	> 70.5	6.77
COc1ccc2c(c1)c1nc3cc(C)c(C)cc3nc1n2CCN(C)C	1.02 µM	2.73	1.7	3.49	0.431 µM	2.43	0.42	4.94	0.677 µM	0.907	2.35 µM	1.46 µM	3.29 µM	1.62 µM	3.01	0.405 µM	1.73	1.84 µM	3.58	1.95
Cc1cc([N+](=O)[O-])ccc1NS(=O)(=O)c1cc(Cl)ccc1Cl	3.03 µM	22.6	2.48	14	3.56 µM	> 100	4.03	20.1	2.46 µM	3.45	20.7 µM	2.67 µM	8.56 µM	1.54 µM	3.83	4.36 µM	> 100	3.54 µM	75.2	9.26
